The values that follow come from the supplement of paper PMC11061612.

Holding throughout (assay): combination Emax (second highest fraction inhibited in the dose matrix, 72 h); higher = more inhibition; extreme values may be limits of the assay
Experiment [1] relates to KP-1N (Pancreatic Carcinoma). The gist of the method:
(§1)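 After 24 hours at 37°C and 5% CO2 in 1536-well plates, cells in DMEM/F12 or RPMI plus 10% FBS received two-drug dose matrices for 72 hours. Viability came from CellTiter-Glo 2.0 luminescence and was scaled as inhibition, anchored at 0 by vehicle wells and at 1 by blank wells. Combination Emax is taken as the second-highest inhibition in the matrix, and Bliss excess as the observed combination effect less EA + EB − EA·EB, with EA and EB the single-agent effects.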

The subject of experiment [2] is DEL (T-Cell Non-Hodgkin's Lymphoma). The gist of the method: as §1
Experiment [3] concerns Hs-578-T (Breast Carcinoma). The gist of the method:
as §1

Experiment [4] concerns HT-1376 (Bladder Carcinoma). The gist of the method: as §1
The subject of experiment [5] is SK-ES-1 (Ewing's Sarcoma). The gist of the method:
as §1

The test system of experiment [6] is T98G (Glioblastoma). The procedure, abridged: as §1
The subject of experiment [7] is HCC1806 (Breast Carcinoma). The procedure, abridged: as §1
The test system of experiment [8] is SNU-5 (Gastric Carcinoma). The procedure, abridged:
as §1

Experiment [9] has as its system KURAMOCHI (Ovarian Carcinoma). The procedure, abridged:
as §1

Experiment [10] concerns ES4 (Ewing's Sarcoma). The procedure, abridged:
as §1

Experiment [11] concerns TE-15 (Esophageal Squamous Cell Carcinoma). The gist of the method: as §1
For experiment [12], the system named is LS-180 (Colorectal Carcinoma). The gist of the method: as §1
Experiment [13] concerns CCRF-CEM (T-Lymphoblastic Leukemia). The gist of the method: as §1
Experiment [14] has as its system ME-1 (Acute Myeloid Leukemia). The procedure, abridged: as §1
Experiment [15] relates to RO82-W-1 (Thyroid Gland Carcinoma). The procedure, abridged: as §1
Experiment [16] relates to B-CPAP (Thyroid Gland Carcinoma). The procedure, abridged:
as §1

Experiment [17] has as its system TCCSUP (Bladder Carcinoma). The gist of the method: as §1
The test system of experiment [18] is UM-UC-3 (Bladder Carcinoma). The gist of the method:
as §1

For experiment [19], the system named is HOS (Osteosarcoma). The gist of the method:
as §1

In the case of `Cc1cc2ncnn2cc1Nc1ncc2c(n1)n(C1CCOCC1)c(=O)n2C` [AZD7648] + C[C@@H]1COCCN1C2=NC(=NC(=C2)C3(CC3)[S@](=N)(=O)C)C4=C5C=CNC5=NC=C4 [AZD6738] (first compound max 10 µM, 7x7, partner max 10 µM), the “combination Emax” value in [1] stood at 0.252; in experiment [2], 0.977; in [3], 0.912; in experiment [4], 0.546; in [5] it was 0.816; in [6] it was 0.859. Also, the “combination Emax” value in experiment [7] was determined as 0.928; in experiment [8] it was 0.931; in [9], 0.567; in experiment [10], 0.686; in [11], 0.713; in experiment [12], 0.754. The “combination Emax” value in experiment [13] turned out to be 0.997; in [14], 0.378; in experiment [15], 0.478; in [16] it was 0.439; in [17], 0.569; in experiment [18], 0.41. For the same compound, in experiment [19], the “combination Emax” value came to 0.691.

As to `Cc1cc2ncnn2cc1Nc1ncc2c(n1)n(C1CCOCC1)c(=O)n2C` [AZD7648] + O=C(c1cc(Cc2n[nH]c(=O)c3ccccc23)ccc1F)N1CCN(C(=O)C2CC2)CC1 [Olaparib] (first compound max 10 µM, 7x7, partner max 10 µM), the “combination Emax” value in [1] worked out at 0.257; in [2] it was 0.693; in [3], 0.507; in experiment [4] it was 0.0682; in [5] it was 0.923; in experiment [6], 0.203. Further, the “combination Emax” value in [7] was 0.142; in experiment [8], 0.374; in [9], 0.16; in [10], 0.572; in experiment [11], 0.182; in experiment [12] it was 0.338. Moreover, the “combination Emax” value in [13] worked out at 0.454; in [14], 0.172; in [15] it was 0.251; in [16], 0.265; in experiment [17], 0.134; in experiment [18], 0.145. Moreover, the “combination Emax” value in experiment [19] is 0.195.

As to `COc1cccc2c1C(=O)c1c(O)c3c(c(O)c1C2=O)C[C@@](O)(C(=O)CO)C[C@@H]3O[C@H]1C[C@H](N)[C@H](O)[C@H](C)O1` [Doxorubicin] + Cc1cc2ncnn2cc1Nc1ncc2c(n1)n(C1CCOCC1)c(=O)n2C [AZD7648] (first compound max 1 µM, 7x7, partner max 10 µM), the “combination Emax” value in experiment [1] stood at 0.675; in experiment [2] it was 1; in [3], 0.856; in experiment [4], 0.182; in experiment [5] it was 0.983; in [6], 0.597. Moreover, the “combination Emax” value in [7] was found to be 0.919; in experiment [8] it was 0.823; in [9], 0.546; in [10], 0.945; in [11] it was 0.721; in experiment [12], 0.736. In addition, the “combination Emax” value came out at 1 in experiment [13]; 0.355 in experiment [14]; 0.628 in experiment [15]; 0.941 in [16]; 0.665 in experiment [17]; 0.802 in [18]. In addition, the “combination Emax” value in [19] turned out to be 0.972.

As to `COc1cccc(OCCCN)c1-c1cc(Nc2cnc(C#N)cn2)n[nH]1` [Prexasertib] + C=CCn1c(=O)c2cnc(Nc3ccc(N4CCN(C)CC4)cc3)nc2n1-c1cccc(C(C)(C)O)n1 [AZD1775] (first compound max 1 µM, partner max 1 µM), the “combination Emax” value in experiment [1] turned out to be 0.575; in [2] it was 1; in experiment [3] it was 0.942; in experiment [4], 0.422; in [5], 1; in experiment [6], 0.917. Moreover, the “combination Emax” value was 0.983 in experiment [7]; 0.969 in experiment [8]; 0.773 in [9]; 0.893 in experiment [10]; 0.866 in [11]; 0.819 in experiment [12]. Besides, the “combination Emax” value was determined as 1 in experiment [13]; 0.599 in experiment [14]; 0.553 in experiment [15]; 0.874 in [16]; 0.748 in [17]; 0.807 in experiment [18]. Further, in [19], the “combination Emax” value is 0.97.

Take `COc1cccc(OCCCN)c1-c1cc(Nc2cnc(C#N)cn2)n[nH]1` [Prexasertib] + CN(C)CCCOc1ccc(-c2ccc3ncc4c(c3c2)n(C2CCOCC2)c(=O)n4C)cn1 [AZD0156] (first compound max 1 µM, 7x7, partner max 1 µM): the “combination Emax” value was 0.298 in [1]; 1 in [2]; 0.942 in [3]; 0.471 in experiment [4]; 0.948 in experiment [5]; 0.899 in experiment [6]. The “combination Emax” value was 0.967 in experiment [7]; 0.926 in experiment [8]; 0.706 in experiment [9]; 0.912 in experiment [10]; 0.831 in experiment [11]; 0.789 in experiment [12]. The “combination Emax” value was 1 in experiment [13]; 0.622 in experiment [14]; 0.572 in experiment [15]; 0.686 in experiment [16]; 0.689 in experiment [17]; 0.537 in experiment [18]. Moreover, in [19], the “combination Emax” value came out at 0.854.

On to `COc1cccc(OCCCN)c1-c1cc(Nc2cnc(C#N)cn2)n[nH]1` [Prexasertib] + C[C@@H]1COCCN1C2=NC(=NC(=C2)C3(CC3)[S@](=N)(=O)C)C4=C5C=CNC5=NC=C4 [AZD6738] (first compound max 1 µM, 7x7, partner max 10 µM), for which the “combination Emax” value in experiment [1] worked out at 0.324; in experiment [2], 1; in [3], 0.912; in experiment [4], 0.503; in [5], 0.944; in experiment [6] it was 0.905. In addition, the “combination Emax” value came out at 0.988 in [7]; 0.975 in [8]; 0.647 in experiment [9]; 0.879 in experiment [10]; 0.874 in experiment [11]; 0.819 in experiment [12]. Moreover, the “combination Emax” value in experiment [13] came out at 1; in experiment [14], 0.633; in experiment [15] it was 0.441; in [16], 0.742; in experiment [17], 0.712; in experiment [18], 0.615. Besides, the “combination Emax” value in experiment [19] came out at 0.902.

For the compound `COc1cccc(OCCCN)c1-c1cc(Nc2cnc(C#N)cn2)n[nH]1` [Prexasertib] + Cc1cc2ncnn2cc1Nc1ncc2c(n1)n(C1CCOCC1)c(=O)n2C [AZD7648] (first compound max 1 µM, 7x7, partner max 10 µM), the “combination Emax” value in [1] came out at 0.246; in [2], 1; in experiment [3] it was 0.925; in experiment [4], 0.571; in [5] it was 0.964; in experiment [6] it was 0.893. Besides, the “combination Emax” value was found to be 0.978 in experiment [7]; 0.983 in [8]; 0.672 in experiment [9]; 0.93 in experiment [10]; 0.831 in [11]; 0.789 in experiment [12]. Also, the “combination Emax” value in [13] was found to be 1; in [14], 0.622; in experiment [15] it was 0.45; in experiment [16], 0.73; in experiment [17], 0.704; in experiment [18] it was 0.56. Also, in experiment [19], the “combination Emax” value came out at 0.826.
